# Laboratory results from EP1769804B1, “hPTH(1-34) for use in preventing or reducing the incidence or severity of vertebral and / or non vertebral fracture in a male human” (priority 1998, dated 2012).
# Marks after values point to notes of the source that are not given here.
# Experiments:
# Ovariectomized Primates [1] = test: Cortical histomorphometry of the humerus midshaft; assay type: in vivo, Macaca fascicularis; details: mean ± SEM
# Excerpt: (§1) Biomechanical tests were done on lumbar vertebrae L-3 to L-4, the femur neck, humerus midshaft, and on a cortical bone specimen machined from the femur diaphysis (measures defined in Table 2). Conventional static and dynamic histomorphometry were done (measures described in Table 6) on the humerus midshaft, lumbar vertebra L-2, femoral neck, femur midshaft, the radius midshaft and distal radius. Initial statistical analyses compared all groups to vehicle-treated ovariectomized controls. The data is suitable for additional exploratory analyses to examine dose dependency, effects of withdrawal, interactions between outcomes, and changes in time by methods known to those of skill in the art. All assays were conducted and determined by methods known in the art.
# For certain experimental subjects, cortical bone of the humerus was examined by histomorphometry and by polarized Fourier transform infrared microscopy. The Fourier transform infrared microscopy was conducted by an adaptation of known methods for such microscopy.
# Ovariectomized Primates [2] = test: Biomechanical material properties of beam specimens from femur diaphysis; assay type: in vivo, Macaca fascicularis; details: for E (Young's modulus) / u (toughness) / εa / σa: femur diaphysis beam, mean ± SEM
# Excerpt: as §1
# rodents = test: In vivo mechanistic studies in rodents; details: after the first dose
# [3] = PTH5-W: withdrawal after 5 µg/kg for 12 months
# [4] = PTH1-W: withdrawal after 1 µg/kg for 12 months
substance,measurement,setting,value
teriparatide [rhPTH(1-34)],W.Wi (Osteonal wall width),Ovariectomized Primates [1]; PTH1: 1 µg/kg for 18 months,61.36 ± 7.79 µm
same,omt (Osteoid maturation time),Ovariectomized Primates [1]; PTH1: 1 µg/kg for 18 months,3.76 ± 0.70 days
same,Ac.F (Activation frequency),Ovariectomized Primates [1]; [3],2.05 ± 1.46^a cycles/year
same,"B.Ar (Bone area, the total area within the periosteal surface)",Ovariectomized Primates [1]; [3],58.16 ± 8.79^a mm^2
same,"BFR/BS.Ec (bone formation rate, endocortical surface referent)",Ovariectomized Primates [1]; [3],12.73 ± 16.33^a µm/day
same,"BFR/BS.Ps (Bone formation rate, periosteal surface referent)",Ovariectomized Primates [1]; [3],5.79 ± 4.05 µm/day
same,"BFR/BV (Bone formation rate, bone volume referent)",Ovariectomized Primates [1]; [3],2.21 ± 1.73^a %/year
same,Ct.Ar (Cortical area),Ovariectomized Primates [1]; [3],40.83 ± 5.80^a mm^2
same,FP (Formation period),Ovariectomized Primates [1]; [3],88.63 ± 52.90 days
same,L.On.N/Ct.A (Number of fluorochrome labeled osteons per unit cortical area),Ovariectomized Primates [1]; [3],0.38 ± 0.26^a #/mm^2
same,"MAR (Mineral apposition rate, intracortical)",Ovariectomized Primates [1]; [3],0.85 ± 0.28^a µm/day
same,"MAR.Ec (Mineral apposition rate, endocortical surface)",Ovariectomized Primates [1]; [3],0.63 ± 0.17 µm/day
same,"MAR.Ps (mineral apposition rate, periosteal surface)",Ovariectomized Primates [1]; [3],0.82 ± 0.15 µm/day
same,MS/BS.Ec (mineralizing endocortical surface normalized to total endocortical surface),Ovariectomized Primates [1]; [3],8.93 ± 15.39^a %
same,MS/BS.Ps (Mineralizing periosteal surface normalized to total periosteal surface),Ovariectomized Primates [1]; [3],2.30 ±3.76^a %
same,Me.Ar (Medullary cavity area),Ovariectomized Primates [1]; [3],17.34 ± 6.05 mm^2
same,O.Wi (Osteoid width),Ovariectomized Primates [1]; [3],3.76 ± 0.83 µm
same,"Po (Porosity, the percentage of bone area occupied by spaces)",Ovariectomized Primates [1]; [3],6.40 ± 4.22^a %
same,W.Wi (Osteonal wall width),Ovariectomized Primates [1]; [3],63.82 ± 8.31 µm
same,omt (Osteoid maturation time),Ovariectomized Primates [1]; [3],5.07 ± 2.65 days
same,Ac.F (Activation frequency),Ovariectomized Primates [1]; PTH5: 5 µg/kg for 18 months,8.70 ± 3.97 cycles/year
same,"B.Ar (Bone area, the total area within the periosteal surface)",Ovariectomized Primates [1]; PTH5: 5 µg/kg for 18 months,55.81 ± 6.24 mm^2
same,"BFR/BS.Ec (bone formation rate, endocortical surface referent)",Ovariectomized Primates [1]; PTH5: 5 µg/kg for 18 months,34.04 ± 19.01 µm/day
same,"BFR/BS.Ps (Bone formation rate, periosteal surface referent)",Ovariectomized Primates [1]; PTH5: 5 µg/kg for 18 months,8.99 ± 5.81 µm/day
same,"BFR/BV (Bone formation rate, bone volume referent)",Ovariectomized Primates [1]; PTH5: 5 µg/kg for 18 months,12.93 ± 5.94^a %/year
same,Ct.Ar (Cortical area),Ovariectomized Primates [1]; PTH5: 5 µg/kg for 18 months,40.96 ± 4.30^a mm^2
same,FP (Formation period),Ovariectomized Primates [1]; PTH5: 5 µg/kg for 18 months,81.97 ± 95.63 days
same,L.On.N/Ct.A (Number of fluorochrome labeled osteons per unit cortical area),Ovariectomized Primates [1]; PTH5: 5 µg/kg for 18 months,1.45 ± 0.47^a #/mm^2
same,"MAR (Mineral apposition rate, intracortical)",Ovariectomized Primates [1]; PTH5: 5 µg/kg for 18 months,1.03 ± 0.23 µm/day
same,"MAR.Ec (Mineral apposition rate, endocortical surface)",Ovariectomized Primates [1]; PTH5: 5 µg/kg for 18 months,0.75 ± 0.14 µm/day
same,"MAR.Ps (mineral apposition rate, periosteal surface)",Ovariectomized Primates [1]; PTH5: 5 µg/kg for 18 months,0.66 ± 0.17 µm/day
same,MS/BS.Ec (mineralizing endocortical surface normalized to total endocortical surface),Ovariectomized Primates [1]; PTH5: 5 µg/kg for 18 months,40.47 ± 24.68^a %
same,MS/BS.Ps (Mineralizing periosteal surface normalized to total periosteal surface),Ovariectomized Primates [1]; PTH5: 5 µg/kg for 18 months,11.00 ± 9.63%
same,Me.Ar (Medullary cavity area),Ovariectomized Primates [1]; PTH5: 5 µg/kg for 18 months,14.85 ± 4.72^a mm^2
same,O.Wi (Osteoid width),Ovariectomized Primates [1]; PTH5: 5 µg/kg for 18 months,3.94 ± 1.13 µm
same,"Po (Porosity, the percentage of bone area occupied by spaces)",Ovariectomized Primates [1]; PTH5: 5 µg/kg for 18 months,6.78 ± 4.23^a %
same,Rs.N/Ct.A (number of resorption spaces per unit cortical area),Ovariectomized Primates [1]; PTH5: 5 µg/kg for 18 months,0.43 ± 0.26^a #/mm^2
same,W.Wi (Osteonal wall width),Ovariectomized Primates [1]; PTH5: 5 µg/kg for 18 months,65.29 ± 9.43 µm
same,omt (Osteoid maturation time),Ovariectomized Primates [1]; PTH5: 5 µg/kg for 18 months,6.45 ± 13.85 days
same,material properties of beam specimens machined from the femoral diaphysis,Ovariectomized Primates [2]; compared to ovariectomized controls,did not alter
same,E (Young's modulus),Ovariectomized Primates [2]; [4],16.6 ± 0.6 Gpa
same,u (toughness),Ovariectomized Primates [2]; [4],5.3 ± 0.4 mJ/m^3
same,εa,Ovariectomized Primates [2]; [4],0.034 ± 0.002
same,σa,Ovariectomized Primates [2]; [4],214 ± 6 Mpa
same,E (Young's modulus),Ovariectomized Primates [2]; PTH1: 1 µg/kg for 18 months,17.1 ± 0.4 Gpa
same,u (toughness),Ovariectomized Primates [2]; PTH1: 1 µg/kg for 18 months,6.1 ± 0.4 mJ/m^3
same,εa,Ovariectomized Primates [2]; PTH1: 1 µg/kg for 18 months,0.036 ± 0.002
same,σa,Ovariectomized Primates [2]; PTH1: 1 µg/kg for 18 months,222 ± 4 Mpa
same,E (Young's modulus),Ovariectomized Primates [2]; [3],15.3 ± 0.6^a Gpa
same,u (toughness),Ovariectomized Primates [2]; [3],6.1 ± 0.4 mJ/m^3
same,εa,Ovariectomized Primates [2]; [3],0.038 ± 0.002
same,σa,Ovariectomized Primates [2]; [3],208 ± 6 Mpa
same,E (Young's modulus),Ovariectomized Primates [2]; PTH5: 5 µg/kg for 18 months,15.4 ± 0.6^a Gpa
same,u (toughness),Ovariectomized Primates [2]; PTH5: 5 µg/kg for 18 months,5.4 ± 0.4 mJ/m^3
same,εa,Ovariectomized Primates [2]; PTH5: 5 µg/kg for 18 months,0.034 ± 0.002
same,σa,Ovariectomized Primates [2]; PTH5: 5 µg/kg for 18 months,206 ± 6 Mpa
same,time to detectable increase in bone forming surfaces,rodents,≤ 24 h
